Target: human α-thrombin (Homo sapiens, UniProt P00734)
Experiment: Sub-library screen for active and permeable cyclic peptides (PAMPA plus thrombin inhibition)
Assay type: biochemical
Details: crude, slopes normalized to DMSO; for Residual thrombin activity: Top sample: PAMPA acceptor well after 14 h, 5 μM donor; for Residual thrombin activity: Equilibrated sample: donor sample diluted to theoretical equilibrium (1 μM in assay)
Procedure: Linear dithiol peptides were synthesized in fritted 5-ml polypropylene syringes on a MultiPep RSi parallel peptide synthesizer (Intavis) by standard Fmoc-based solid-phase peptide synthesis on cysteamine 2-chlorotrityl resin (Sigma-Aldrich, 8.56000, 1.63 mmol g^−1 loading, 25 μmol scale) as described above with small changes. Amino acids (65 μmol, 2.6 eq.) were activated with HATU (63 μmol, 2.5 eq.) and NMM (145 μmol, 5.8 eq.) in 280 μl of DMF and 5 μl of NMP and let to react with the resin (25 μmol, 1 eq.) for 45 min. Couplings were performed twice for each amino acid. Resin was washed once with 800 μl of DMF, and unreacted amines were capped with 5% acetic anhydride and 6% 2,6-lutidine in 400 μl of DMF for 5 min. The resin was washed six times with 600 μl of DMF, and Fmoc protecting groups were removed by incubating the resin twice with 450 μl of a 20% piperidine solution in DMF for 5 min. The resin was washed six times with 600 μl of DMF before proceeding to the next coupling cycle. After completing the last coupling cycle, the resin was washed six times with […] of DCM. Peptide cleavage and ether precipitation were carried out as described above. After quantification with Ellman’s reagent, 1 μmol of each peptide was transferred in seven replicates to new Nunc 96-well DeepWell polypropylene plates and lyophilized. Peptides were cyclized as described above to afford 20 mM cyclic peptide stock solutions in DMSO containing 160 mM HEPES sodium salt. The amine on cyclic peptides was acylated with 5-chlorothiophene-2-carboxylic acid as follows. A 160 mM solution in 5-chlorothiophene-2-carboxylic acid was prepared in DMSO containing 160 mM HEPES sodium salt, and the acid was activated by mixing in equal volumes with a 160 mM HSTU solution in DMSO. Then, 10 μl of the activated carboxylic acid solutions and the cyclic peptide stocks were placed in Echo Qualified 384-well Low Dead Volume microplates (Labcyte), and 400 nl of cyclic peptide and 400 nl of HSTU-activated 5-chlorothiophene-2-carboxylic acid were transferred combinatorially to 384-well microplates (Greiner, 781076) using the Echo 650 acoustic liquid handler (Labcyte). Plates were centrifuged at 2,000 g for 2 min, and the reaction was allowed to proceed at room temperature for 8 h before addition of 39.2 μl of DMSO with a CERTUS FLEX liquid dispenser (Gyger). A volume of 25 μl of the resulting DMSO solutions was diluted with PBS buffer at pH 7.4 containing 5% DMSO in Nunc 96-well DeepWell polypropylene plates to afford 5 μM solutions of the acylated peptides.
The PAMPA plates were covered with a lid to avoid evaporation and incubated for 14 h at room temperature. Additionally, a diluted donor sample was prepared at the concentration representing theoretical maximum permeability (3 μM). Thereby, 30 μl of the donor sample before incubation was diluted with 20 μl of PBS buffer at pH 7.4 containing 5% DMSO. Volumes of 16 μl of each acceptor well and the diluted donor samples were transferred to a 384-well microplate (Greiner, 781076), and thrombin activity was measured as follows. Human α-thrombin (16 μl, 6 nM, Molecular Innovations) in assay buffer was dispensed into each well using a CERTUS FLEX liquid dispenser (Gyger), and plates were incubated at room temperature for 10 min. Then, 16 μl of a 150 μM fluorogenic thrombin substrate solution (Z-Gly-Gly-Arg-AMC, Bachem) in assay buffer containing 1% DMSO was added to each well, and thrombin inhibition was determined by measuring the fluorescent gain over time. Fluorescence intensity was measured on a Tecan Infinite M200 Pro microplate reader for 30 min at 25 °C with a fluorescent readout every 3 min (excitation: 360 nm, emission: 465 nm). Protease inhibition was calculated by comparing the enzymatic activity to a control without cyclic peptide.

| Structure (SMILES) | Residual thrombin activity: Top sample | Residual thrombin activity: Equilibrated sample |
| --- | --- | --- |
| N#Cc1ccc(C[C@@H]2NC(=O)[C@@H](NC(=O)c3ccc(Cl)s3)CSCc3cccc(n3)CSCCNC(=O)C[C@H]3CCCN3C2=O)cc1 [C1-X35-L1] | 91.5 | 92.1 |
| N#Cc1ccc(C[C@@H]2NC(=O)[C@@H](NC(=O)c3ccc(Cl)s3)CSCCS(=O)(=O)CCSCCNC(=O)C[C@H]3CCCN3C2=O)cc1 [C1-X35-L2] | 95.6 | 96.6 |
| N#Cc1ccc(C[C@@H]2NC(=O)[C@@H](NC(=O)c3ccc(Cl)s3)CSCc3ccc(cc3)CSCCNC(=O)C[C@H]3CCCN3C2=O)cc1 [C1-X35-L3] | 94.1 | 100.0 |
| N#Cc1ccc(C[C@@H]2NC(=O)[C@@H](NC(=O)c3ccc(Cl)s3)CSC/C=C/CSCCNC(=O)C[C@H]3CCCN3C2=O)cc1 [C1-X35-L4] | 93.4 | 96.9 |
| N#Cc1ccc(C[C@@H]2NC(=O)[C@@H](NC(=O)c3ccc(Cl)s3)CSCC(=O)CSCCNC(=O)C[C@H]3CCCN3C2=O)cc1 [C1-X35-L7] | 96.3 | 100.4 |
| O=C1C[C@H]2CCCN2C(=O)[C@H](Cc2ccc(C(F)(F)F)cc2)NC(=O)[C@@H](NC(=O)c2ccc(Cl)s2)CSCc2cccc(n2)CSCCN1 [C1-X36-L1] | 93.6 | 98.9 |
| O=C1C[C@H]2CCCN2C(=O)[C@H](Cc2ccc(C(F)(F)F)cc2)NC(=O)[C@@H](NC(=O)c2ccc(Cl)s2)CSCCS(=O)(=O)CCSCCN1 [C1-X36-L2] | 99.0 | 102.5 |
| O=C1C[C@H]2CCCN2C(=O)[C@H](Cc2ccc(C(F)(F)F)cc2)NC(=O)[C@@H](NC(=O)c2ccc(Cl)s2)CSCc2ccc(cc2)CSCCN1 [C1-X36-L3] | 95.8 | 94.6 |
| O=C1C[C@H]2CCCN2C(=O)[C@H](Cc2ccc(C(F)(F)F)cc2)NC(=O)[C@@H](NC(=O)c2ccc(Cl)s2)CSC/C=C/CSCCN1 [C1-X36-L4] | 96.8 | 92.7 |
| O=C1C[C@H]2CCCN2C(=O)[C@H](Cc2ccc(C(F)(F)F)cc2)NC(=O)[C@@H](NC(=O)c2ccc(Cl)s2)CSCc2ccccc2CSCCN1 [C1-X36-L6] | 91.2 | 94.8 |
| O=C1CSCCNC(=O)C[C@H]2CCCN2C(=O)[C@H](Cc2ccc(C(F)(F)F)cc2)NC(=O)[C@@H](NC(=O)c2ccc(Cl)s2)CSC1 [C1-X36-L7] | 100.3 | 99.5 |
| Cc1cccc(C[C@@H]2NC(=O)[C@@H](NC(=O)c3ccc(Cl)s3)CSCCS(=O)(=O)CCSCCNC(=O)C[C@H]3CCCN3C2=O)c1 [C1-X37-L2] | 93.0 | 57.2 |
| Cc1cccc(C[C@@H]2NC(=O)[C@@H](NC(=O)c3ccc(Cl)s3)CSC/C=C/CSCCNC(=O)C[C@H]3CCCN3C2=O)c1 [C1-X37-L4] | 87.8 | 60.4 |

Other lines, results leading:

| Residual thrombin activity: Top sample | Residual thrombin activity: Equilibrated sample | Structure (SMILES) |
| --- | --- | --- |
| 102.4 | 97.2 | N#Cc1ccc(C[C@@H]2NC(=O)[C@@H](NC(=O)c3ccc(Cl)s3)CSCc3cccc(c3)CSCCNC(=O)C[C@H]3CCCN3C2=O)cc1 [C1-X35-L5] |
| 90.5 | 92.5 | N#Cc1ccc(C[C@@H]2NC(=O)[C@@H](NC(=O)c3ccc(Cl)s3)CSCc3ccccc3CSCCNC(=O)C[C@H]3CCCN3C2=O)cc1 [C1-X35-L6] |
| 101.6 | 104.5 | O=C1C[C@H]2CCCN2C(=O)[C@H](Cc2ccc(C(F)(F)F)cc2)NC(=O)[C@@H](NC(=O)c2ccc(Cl)s2)CSCc2cccc(c2)CSCCN1 [C1-X36-L5] |
| 86.5 | 84.1 | Cc1cccc(C[C@@H]2NC(=O)[C@@H](NC(=O)c3ccc(Cl)s3)CSCc3cccc(n3)CSCCNC(=O)C[C@H]3CCCN3C2=O)c1 [C1-X37-L1] |
| 95.4 | 90.2 | Cc1cccc(C[C@@H]2NC(=O)[C@@H](NC(=O)c3ccc(Cl)s3)CSCc3ccc(cc3)CSCCNC(=O)C[C@H]3CCCN3C2=O)c1 [C1-X37-L3] |
| 100.9 | 88.0 | Cc1cccc(C[C@@H]2NC(=O)[C@@H](NC(=O)c3ccc(Cl)s3)CSCc3cccc(c3)CSCCNC(=O)C[C@H]3CCCN3C2=O)c1 [C1-X37-L5] |
| 93.2 | 84.4 | Cc1cccc(C[C@@H]2NC(=O)[C@@H](NC(=O)c3ccc(Cl)s3)CSCc3ccccc3CSCCNC(=O)C[C@H]3CCCN3C2=O)c1 [C1-X37-L6] |
| 94.3 | 97.7 | Cc1cccc(C[C@@H]2NC(=O)[C@@H](NC(=O)c3ccc(Cl)s3)CSCC(=O)CSCCNC(=O)C[C@H]3CCCN3C2=O)c1 [C1-X37-L7] |
| 56.1 | 37.8 | O=C1C[C@H]2CCCN2C(=O)[C@H](Cc2ccccc2)NC(=O)[C@@H](NC(=O)c2ccc(Cl)s2)CCSCc2cccc(n2)CSCCN1 [C2-X5-L1] |
| 89.4 | 25.8 | O=C1C[C@H]2CCCN2C(=O)[C@H](Cc2ccccc2)NC(=O)[C@@H](NC(=O)c2ccc(Cl)s2)CCSCCS(=O)(=O)CCSCCN1 [C2-X5-L2] |
| 86.6 | 59.6 | O=C1C[C@H]2CCCN2C(=O)[C@H](Cc2ccccc2)NC(=O)[C@@H](NC(=O)c2ccc(Cl)s2)CCSCc2ccc(cc2)CSCCN1 [C2-X5-L3] |
| 61.9 | 33.0 | O=C1C[C@H]2CCCN2C(=O)[C@H](Cc2ccccc2)NC(=O)[C@@H](NC(=O)c2ccc(Cl)s2)CCSC/C=C/CSCCN1 [C2-X5-L4] |
| 90.5 | 54.8 | O=C1C[C@H]2CCCN2C(=O)[C@H](Cc2ccccc2)NC(=O)[C@@H](NC(=O)c2ccc(Cl)s2)CCSCc2cccc(c2)CSCCN1 [C2-X5-L5] |
| 87.4 | 76.1 | O=C1C[C@H]2CCCN2C(=O)[C@H](Cc2ccccc2)NC(=O)[C@@H](NC(=O)c2ccc(Cl)s2)CCSCc2ccccc2CSCCN1 [C2-X5-L6] |
| 95.7 | 44.2 | O=C1CSCCNC(=O)C[C@H]2CCCN2C(=O)[C@H](Cc2ccccc2)NC(=O)[C@@H](NC(=O)c2ccc(Cl)s2)CCSC1 [C2-X5-L7] |
| 93.0 | 90.7 | O=C1C[C@H]2CCCN2C(=O)[C@@H](Cc2ccccc2)NC(=O)[C@@H](NC(=O)c2ccc(Cl)s2)CCSCc2cccc(n2)CSCCN1 [C2-X31-L1] |
| 98.7 | 98.6 | O=C1C[C@H]2CCCN2C(=O)[C@@H](Cc2ccccc2)NC(=O)[C@@H](NC(=O)c2ccc(Cl)s2)CCSCCS(=O)(=O)CCSCCN1 [C2-X31-L2] |
| 96.0 | 100.5 | O=C1C[C@H]2CCCN2C(=O)[C@@H](Cc2ccccc2)NC(=O)[C@@H](NC(=O)c2ccc(Cl)s2)CCSCc2ccc(cc2)CSCCN1 [C2-X31-L3] |

Source: paper PMC11062899, “De novo development of small cyclic peptides that are orally bioavailable” (Nature Chemical Biology, 2023)
